Laboratory results: US20200206344A1, “METHODS FOR MODULATING THE INTERACTION BETWEEN EWS-FLI1 AND BAF COMPLEXES” (Dana-Farber Cancer Institute, Inc., priority 2017, published 2020)
Values belong to the molecule of their own block, whether it stands above or below them.

What was measured:
wild-type FLI1 = target: T1, wild-type FLI1 (Homo sapiens, UniProt Q01543); assay: Biotinylated isoxazole-mediated precipitation; assay type: biochemical; details: U2OS osteosarcoma cell lysates
T1 construct: expressed in transfected cells; host or cells: U2OS osteosarcoma cells, lentiviral expression
T1 sequence (Q01543 1-452): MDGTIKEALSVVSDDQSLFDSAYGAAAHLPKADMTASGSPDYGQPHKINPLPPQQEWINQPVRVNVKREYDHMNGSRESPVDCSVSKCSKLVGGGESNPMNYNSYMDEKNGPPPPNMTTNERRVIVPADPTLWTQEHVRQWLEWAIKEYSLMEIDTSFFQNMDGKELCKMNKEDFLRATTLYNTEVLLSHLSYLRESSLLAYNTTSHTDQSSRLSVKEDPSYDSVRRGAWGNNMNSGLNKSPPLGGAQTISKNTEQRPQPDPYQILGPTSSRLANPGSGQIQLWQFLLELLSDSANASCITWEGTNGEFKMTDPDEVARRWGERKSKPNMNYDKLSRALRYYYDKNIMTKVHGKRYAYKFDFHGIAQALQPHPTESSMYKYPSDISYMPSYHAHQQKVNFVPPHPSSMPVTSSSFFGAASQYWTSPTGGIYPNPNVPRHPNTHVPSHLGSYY
Method: (§1) These assays were performed as previously described (Kato et al., 2012) with slight modifications. Biotinylated isoxazole (b-isox, Sigma-Aldrich) was reconstituted in DMSO. Briefly, 5-10 million cells were resuspended in 1 mL lysis buffer (20 mM Tris-HCl pH 7.4, 150 mM NaCl, 5 mM MgCl2, 0.5% NP-40 and 10% glycerol supplemented with 1× Protease/Phosphatase inhibitors (Pierce), 0.1 mM PMSF and 20 mM betamercaptoethanol) and incubated for 30 minutes with rotation at +4° C. Protein supernatant was then collected after centrifugation for 15 min at 14000 rpm+4° C. A 5% whole cell extract (WCE) control was collected and the remaining proteins were divided into four aliquots before addition of biotinylated isoxazole at 0, 10, 30 100 uM final concentrations. 100 μg/mL RNase A (Life Technologies) was used for RNase treatment experiments. The Reaction solutions were incubated at +4° C. for 1 h with rotation and centrifuged for 15 min at 14000 rpm+4° C. Supernatant was saved for further analysis and pellets were washed twice in supplemented Lysis buffer before resuspension in Laemmli buffer. WCE, pellets and supernatants were analyzed by 4%-12% Tris-Glycine gradient gels (Life Technologies) and Western blotting was performed using standard protocols.

EWS-FLI1 [1] = assay: Biotinylated isoxazole-mediated precipitation; assay type: biochemical
Method: as §1

[2] = target: mSWI/SNF (BAF) complexes (human); assay: cell-based or functional assay
EWS-FLI1 [3] = assay: BAF155 ChIP-seq after shRNA knockdown of EWS-FLI1; assay type: cell-based; details: SK-N-MC cells, versus shGFP
Target sequence in this assay (as listed by the source): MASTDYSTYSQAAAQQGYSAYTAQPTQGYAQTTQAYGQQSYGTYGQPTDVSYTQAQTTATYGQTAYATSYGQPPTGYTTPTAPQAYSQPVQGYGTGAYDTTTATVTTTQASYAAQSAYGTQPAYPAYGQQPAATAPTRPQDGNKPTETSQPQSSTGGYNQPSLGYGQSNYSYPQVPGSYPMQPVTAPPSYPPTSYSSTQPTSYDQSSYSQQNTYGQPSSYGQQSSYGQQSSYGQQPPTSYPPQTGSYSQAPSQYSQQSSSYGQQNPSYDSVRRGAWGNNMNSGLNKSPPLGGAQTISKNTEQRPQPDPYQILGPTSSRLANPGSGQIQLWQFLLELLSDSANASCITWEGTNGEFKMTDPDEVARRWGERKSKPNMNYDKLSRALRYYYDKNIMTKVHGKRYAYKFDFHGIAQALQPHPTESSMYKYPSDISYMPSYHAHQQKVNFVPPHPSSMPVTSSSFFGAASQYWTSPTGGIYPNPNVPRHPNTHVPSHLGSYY

[4] = target: mSWI/SNF (BAF) complexes (human); assay: partial urea denaturation of nuclear extracts before anti-EWSR1 immunoprecipitation, immunoblot
EWS(YS37)-FLI1 = target: T2, EWS(YS37)-FLI1 (human); assay: co-immunoprecipitation with anti-V5 antibodies, HEK-293-T cells co-expressing HA- and V5-tagged proteins
T2 construct: EWS-FLI1 with all 37 tyrosines of the prion-like domain changed to serine; also called EWS(Y37)-FLI1; EWS(YS37)-FLI1 mutant protein
T2 chain: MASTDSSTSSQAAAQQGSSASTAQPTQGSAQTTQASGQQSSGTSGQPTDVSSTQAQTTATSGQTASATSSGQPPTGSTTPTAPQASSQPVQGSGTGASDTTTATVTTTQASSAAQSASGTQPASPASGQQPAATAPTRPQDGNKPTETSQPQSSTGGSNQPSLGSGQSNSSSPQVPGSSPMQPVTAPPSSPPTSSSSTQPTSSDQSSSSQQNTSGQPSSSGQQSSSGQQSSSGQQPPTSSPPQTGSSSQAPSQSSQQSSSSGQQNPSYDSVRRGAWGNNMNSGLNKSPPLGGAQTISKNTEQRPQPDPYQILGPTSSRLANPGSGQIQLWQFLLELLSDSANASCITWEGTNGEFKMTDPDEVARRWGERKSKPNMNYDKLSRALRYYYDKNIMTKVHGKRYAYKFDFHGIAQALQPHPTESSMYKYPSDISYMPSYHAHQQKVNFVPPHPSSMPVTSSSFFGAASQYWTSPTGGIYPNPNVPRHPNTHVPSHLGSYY

Molecule: O=C1N[C@H]2[C@H](CS[C@H]2CCCCC(=O)OCCCCCCNC(=O)c2cc(-c3cccs3)on2)N1 [b-isox, biotinylated isoxazole]
- precipitation of lentivirally expressed wild-type FLI1 (wild-type FLI1): but not wild-type FLI1
- precipitation of EWS-FLI1 (EWS-FLI1 [1]; 100 uM b-isox, Ewing sarcoma cell lysates): precipitates
- precipitation of EWS-FLI1, dose dependence (EWS-FLI1 [1]; Ewing sarcoma cell lysates, b-isox 0, 10, 30, 100 uM): dose-dependent
- precipitation of lentivirally expressed EWS-FLI1 (EWS-FLI1 [1]; U2OS osteosarcoma cell lysates): precipitates

- BAF155 ChIP-seq peak occupancy at EWS-FLI1-bound GGAA repeats, SK-N-MC cells [2]: 2 fold
Molecule: EWS-FLI1 fusion protein

Molecule: shEWS-FLI1: shRNA, target FLI1, position 1917, sequence CGTCATGTTCTGGTTTGAGAT
- BAF155 occupancy at EWS-FLI1 bound GGAA repeats (EWS-FLI1 [3]): decreased specifically at GGAA repeat regions

- urea concentration at which the interactions were decreased [4]: 0.5 M
Molecule: wild-type EWSR1 (from UniProt Q01844 1-656)

- binding result (EWS(YS37)-FLI1): binds
B1: HA-tagged EWS(YS37)-FLI1 (other, not shown: small tags and cut ends)
chain: T2 chain
notes: also called HA-tagged mutant EWS-FLI1
